Results published in patent US20030008012A1, “Composition for rectal delivery of an oxazolidinone antibacterial drug” (priority 2001, published 2003).

Assay: Linezolid concentration in blood plasma of beagle dogs after rectal administration of one suppository
Assay type: in vivo
Conditions: dog, other: rectal
Description: One 20 mg linezolid suppository prepared as above was rectally administered to each of four beagle dogs, and the concentration of linezolid in blood plasma of the dogs was determined at different times after administration, as presented in Table 2.
One 600 mg linezolid suppository prepared as above was rectally administered to each of four beagle dogs and the concentration of linezolid in blood plasma of the dogs was determined at different times after administration, as presented in Table 3.

[1] = 20 mg, Example 2 solution suppository, 20 mg linezolid, Dog 1 (15.2 kg)
[2] = 20 mg, Example 2 solution suppository, 20 mg linezolid, Dog 2 (13.7 kg)
[3] = 20 mg, Example 2 solution suppository, 20 mg linezolid, Dog 3 (10.5 kg)
[4] = 20 mg, Example 2 solution suppository, 20 mg linezolid, Dog 4 (12.2 kg)
[5] = 600 mg, Example 5 particulate dispersion suppository, 600 mg linezolid, Dog 1 (15.0 kg)
[6] = 600 mg, Example 5 particulate dispersion suppository, 600 mg linezolid, Dog 2 (13.4 g)
[7] = 600 mg, Example 5 particulate dispersion suppository, 600 mg linezolid, Dog 3 (10.1 kg)
[8] = 600 mg, Example 5 particulate dispersion suppository, 600 mg linezolid, Dog 4 (12.5 kg)

## CC(=O)NC[C@H]1CN(c2ccc(N3CCOCC3)c(F)c2)C(=O)O1 [Linezolid, (S)-N-[[3-[3-fluoro-4-(4-morpholinyl)phenyl]-2-oxo-5-oxazolidinyl]methyl]acetamide]
[1]
  concentration at 0.25 h: 47.6 ng/mL
  concentration at 0.5 h: 132 ng/mL
  concentration at 0.75 h: 168 ng/mL
  concentration at 1 h: 209 ng/mL
  concentration at 1.5 h: 267 ng/mL
  concentration at 2 h: 354 ng/mL
  concentration at 2.5 h: 417 ng/mL
  concentration at 3 h: 364 ng/mL
[2]
  concentration at 0.25 h: 54.6 ng/mL
  concentration at 0.5 h: 136 ng/mL
  concentration at 0.75 h: 189 ng/mL
  concentration at 1 h: 197 ng/mL
  concentration at 1.5 h: 179 ng/mL
  concentration at 2 h: 238 ng/mL
  concentration at 2.5 h: 171 ng/mL
  concentration at 3 h: 146 ng/mL
[3]
  concentration at 0.25 h: 134 ng/mL
  concentration at 0.5 h: 305 ng/mL
  concentration at 0.75 h: 340 ng/mL
  concentration at 1 h: 388 ng/mL
  concentration at 1.5 h: 423 ng/mL
  concentration at 2 h: 351 ng/mL
  concentration at 2.5 h: 331 ng/mL
  concentration at 3 h: 317 ng/mL
[4]
  concentration at 0.25 h: 80.7 ng/mL
  concentration at 0.5 h: 204 ng/mL
  concentration at 0.75 h: 291 ng/mL
  concentration at 1 h: 394 ng/mL
  concentration at 1.5 h: 532 ng/mL
  concentration at 2 h: 548 ng/mL
  concentration at 2.5 h: 550 ng/mL
  concentration at 3 h: 556 ng/mL
[5]
  concentration at 0.25 h: 1110 ng/mL
  concentration at 0.5 h: 2250 ng/mL
  concentration at 0.75 h: 3840 ng/mL
  concentration at 1 h: 5010 ng/mL
  concentration at 1.5 h: 6260 ng/mL
  concentration at 2 h: 7230 ng/mL
  concentration at 2.5 h: 7980 ng/mL
  concentration at 3 h: 8480 ng/mL
[6]
  concentration at 0.25 h: 770 ng/mL
  concentration at 0.5 h: 1240 ng/mL
  concentration at 0.75 h: 1940 ng/mL
  concentration at 1 h: 2610 ng/mL
  concentration at 1.5 h: 3490 ng/mL
  concentration at 2 h: 3570 ng/mL
  concentration at 2.5 h: 5010 ng/mL
  concentration at 3 h: 4730 ng/mL
[7]
  concentration at 0.25 h: 444 ng/mL
  concentration at 0.5 h: 1110 ng/mL
  concentration at 0.75 h: 1680 ng/mL
  concentration at 1 h: 2540 ng/mL
  concentration at 1.5 h: 3460 ng/mL
  concentration at 2 h: 4840 ng/mL
  concentration at 2.5 h: 5510 ng/mL
  concentration at 3 h: 6570 ng/mL
[8]
  concentration at 0.25 h: 1100 ng/mL
  concentration at 0.5 h: 1720 ng/mL
  concentration at 0.75 h: 1930 ng/mL
  concentration at 1 h: 2640 ng/mL
  concentration at 1.5 h: 4260 ng/mL
  concentration at 2 h: 4810 ng/mL
  concentration at 2.5 h: 6060 ng/mL
  concentration at 3 h: 7480 ng/mL
